Like-named read-outs stand apart in the source and are kept apart here. Residues, ends and D or L forms follow the SMILES beside them.
How the values were obtained:
[1] = Peptide stability in human serum; format: in vitro ADME; conditions: male, human serum diluted with HBSS, 24 h, RP-HPLC; for half-life: human serum
Method: Nevertheless, peptides formed by L-amino acids have a short in vivo half-life in serum, which can reduce their potential bioactivity. The sensitivity of this peptide to proteases was tested at a concentration of 150 μM in HBSS/human serum 90:10 (v/v) for 24 h. At several time points, an aliquot was extracted, precipitated serum proteins with MeOH and then analyzed by RP-HPLC.
Peptides were dissolved in 1 mL of HBSS buffer/human serum (from human male AB plasma; Sigma-Aldrich) 10:90 (v/v) at a final concentration of 200 µM and incubated at 37 °C for 24 h. Aliquots of 50 µL were extracted at a range of incubation times and treated with 200 µL of cold CH3OH (4 °C) to precipitate serum proteins. After 30 min, samples were centrifuged at 13,000 g and 4 °C for 30 min. Supernatants were analyzed by RP-HPLC-PDA and MALDI-TOF MS, using similar procedures as for the quantification of the in vitro cell-based BBB model.

[2] = system: bovine brain endothelial cells (BBECs); test: Internalization of Cf-labeled peptides by BBECs (CLSM, flow cytometry); format: cell-based; conditions: for Internalization with respect to the parent version (HAI): 50 μM; for Internalization with respect to the parent version (HAI) / Internalization profile among candidates: 3 h, 37 °C; for Internalization profile among candidates: Cf-labeled peptides 50 μM (R8 15 μM)
[3] = system: rat astrocytes; test: Internalization of Cf-labeled peptides by rat astrocytes (CLSM, flow cytometry); format: cell-based; conditions: for Internalization with respect to the parent version (HAI): 50 μM; for Internalization with respect to the parent version (HAI) / Internalization profile among candidates: 3 h, 37 °C; for Internalization profile among candidates: Cf-labeled peptides 50 μM (R8 15 μM)
[4] = system: Caco-2 cells; test: Caco-2 intestinal barrier model assay; conditions: for Caco-2 transport: Table 2; for Caco-2 transport / Caco-2 T (%): 2 h at 37 °C, HBSS, 50 μM, RP-HPLC; for Detection by MALDI-TOF MS in acceptor wells: Caco-2 assay, after 2 h; for Caco-2 T (%): Table 1
Method: (§2) In a subsequent step we evaluated the transport capacity of these peptides using two in vitro barrier models, namely in an intestine (Caco-2 assay)[41] and a BBB model[39],[40] […] In these models, two compartments are separated by a membrane containing a monolayer of endothelial cells which mimics either the intestinal barrier or the BBB. One compartment contains the peptide, which is incubated for 2 h. The amount of peptide in each compartment is then analyzed to determine apparent permeability (Papp, in cm/s) and transport (T, in %). The integrity of the compound in the acceptor compartment is assessed by mass spectrometry (MS).
(§3) The ability of peptides to overcome the intestinal barrier was tested using Caco-2 cells. […] Briefly, experiments were done with cells (passage between 60 and 80) seeded on 4.67 cm^2 filters at a density of 5.25·10^4 cell/cm^2. Peptides dissolved in HBSS were incubated for 2 h at a 50 μM concentration with cell layers at 37 °C and 5% CO2. After the experiment, the content of each compartment was directly analyzed by HPLC and then transport (in %) and Papp were determined.

[5] = In vitro bovine BBB cell-based model assay; conditions: BBB Papp, 200 μM, RP-HPLC; for Papp at 2 h, 200 μM: bovine
Method: (§4) In these models, two compartments are separated by a membrane containing a monolayer of endothelial cells which mimics either the intestinal barrier or the BBB. One compartment contains the peptide, which is incubated for 2 h. The amount of peptide in each compartment is then analyzed to determine apparent permeability (Papp, in cm/s) and transport (T, in %). The integrity of the compound in the acceptor compartment is assessed by mass spectrometry (MS).
(§5) This assay was an adapted model[10] of the method previously published by Gaillard and de Boer[52]. Briefly, TEER was measured in all transwells (TEER > 100 Ω·cm^2), before performing the assay. […] The apical compartment was filled with 200 μL of the solution containing the peptide, and 800 µL of Ringer-HEPES was poured into the basal well. Three replicates of each peptide were assayed. The plate was left for 2 h in the incubator at 37 °C. Finally, the samples were collected and analyzed or frozen until analysis. LY fluorescence was measured in a 96-well plate with a Fluoroskan Ascent Microplate Fluorometer (Thermo Fisher Scientific).
(§6) In vitro Transport of AuNPs in using a Bovine BBB Cell-Based Model Assay. To assess the
(§7) capacity of HAI to cross the BBB, this peptide was conjugated to AuNPs and then assay ed in an in
vitro BBB cell-based model.

[6] = system: in vitro bovine BBB model; test: In vitro bovine BBB cell-based model assay; conditions: for BBB T (%): 200 μM, RP-HPLC
Method: as §4, §5, §6, §7
vitro BBB cell-based model.

[7] = system: bovine brain endothelial cells (BBECs); test: MTT toxicity assay in BBECs; format: cell-based; conditions: 50 μM, 24 h
Method: (§1) The assay was performed in 96-well plates, adding 3,150 cells to each well in 100 μL (immortalized cell line –i.e. BBECs) or 7,000 cells in 100 μL (primary cultures –i.e. rat astrocytes), seeded 24 h before performing the experiment. Cells were incubated with each peptide at a range of concentrations (20, 50 and 500 μM) in cellular medium for 24 h at 37 °C and 5% CO2. After 22 h, MTT (3-(4,5-dimethylthiazol-2-yl)−2,5-diphenyltetrazolium bromide) was added to a final concentration of 0.5 mg/mL. The cells with peptides and MTT were incubated for further 2 h. The medium was then discarded and 200 μL of 2-propanol was added to each well to dissolve the purple formazan, product of the conversion of MTT by the mitochondrial enzyme […]. The plate was kept in an orbital shaker for 30 min (15 rpm) to ensure the complete dissolution of formazan. Finally, absorbance was measured at 570 nm and cell viability percentages were calculated dividing the absorbance value of cells treated with a given peptide by the absorbance value of untreated cells. Experiments for each peptide were carried out by triplicate. Cells incubated with 1% SDS were used as control of 0% viability (value subtracted to all samples before viability calculus per each peptide).

[8] = system: rat astrocytes; test: MTT toxicity assay in rat astrocytes; format: cell-based; conditions: 50 μM, 24 h
Method: as §1

[9] = Caco-2 intestinal barrier model assay; conditions: human, Caco-2
Method: as §2, §3

[10] = system: Caco-2 cells
Method: as §2, §3

[11] = system: in vitro bovine BBB model
Method: as §4, §5, §6, §7
vitro BBB cell-based model.

[12] = in vitro; conditions: bovine
Method: as §4, §5, §6, §7
vitro BBB cell-based model.

[13] = system: in vitro human BBB model; test: In vitro human BBB cell-based model assay; format: in vitro ADME; conditions: 50, 250 and 1250 μM
Method: The discrepancy between internalization and transport of (NMe)HAI is probably due to an increase in lipophilicity after methylation of the backbone, thereby enhancing internalization by passive diffusion but not favoring the transcytosis. To ensure that rD-HAI crosses the BBB through active transport, we proceeded to test its mechanism of transport using a human model of the BBB.
This assay was performed using the model published by Cecchelli and co-workers[53]. Endothelial cells and pericytes were defrosted in gelatin-coated Petri dishes (Corning). Pericytes and endothelial cells were cultured in DMEM pH 6.8 or in supplemented endothelial cell growth medium (Sciencells), respectively. After 48 h, pericytes (50,000 cells/well) and endothelial cells (80,000 cells/well) were seeded in gelatin-coated 12-well plates or in Matrigel-coated 12-well Transwell inserts (Corning), respectively. Medium was changed every 2–3 days and assays were performed 7–8 days after seeding. […] […] Then, 500 µL of the compound and 1,500 µL of Ringer-HEPES alone were introduced in the apical or in the basolateral compartments, respectively. The plates were set on at 37 °C for 2 h. The solutions from both compartments were then recovered and quantified by HPLC and identified by MALDI-TOF.

Molecule: CC[C@H](C)[C@@H](C(=O)N(C)[C@@H](Cc1ccc(O)cc1)C(=O)N1CCC[C@H]1C(=O)N[C@@H](CCCNC(=N)N)C(=O)N(C)[C@@H](Cc1c[nH]cn1)C(N)=O)N(C)C(=O)[C@H](C)NC(=O)[C@@H](N)Cc1c[nH]cn1 [(NMe)HAI, H-HA(NMe)I(NMe)YPR(NMe)H-NH2]
- half-life [1]: > 24 h
- Internalization with respect to the parent version (HAI) [2]: two-fold increase in internalization
- Internalization with respect to the parent version (HAI) [3]: two-fold increase in internalization
- Caco-2 transport [4]: 0.200 ± 0.003
- Papp at 2 h, 200 μM ([5]; Table 2, 2 h at 37 °C): 11.7 ± 1.3 ×10⁻⁶ cm/s
- BBB T (%) ([6]; Table 2, 2 h at 37 °C): 13.9 ± 1.6%

Molecule: CC[C@H](C)[C@H](NC(=O)[C@H](C)NC(=O)[C@@H](N)Cc1c[nH]cn1)C(=O)N[C@@H](Cc1ccc(O)cc1)C(=O)N1CCC[C@H]1C(=O)N[C@@H](CCCNC(=N)N)C(=O)N[C@@H](Cc1c[nH]cn1)C(N)=O [HAI, H-HAIYPRH-NH2]
- half-life at 150 μM ([1]; 150 μM in HBSS/human serum 90:10 (v/v)): ~5 min
- Toxicity (MTT assay) [7]: not toxic
- Toxicity (MTT assay) [8]: not toxic
- Internalization in presence of transferrin (Tf) ([2]; Cf-HAI 50 μM, flow cytometry): promoted by the addition of Tf
- Internalization at increasing concentrations of peptide ([2]; range of concentrations of Cf-HAI): saturation of internalization
- Internalization in presence of transferrin (Tf) ([3]; Cf-HAI 50 μM, flow cytometry): promoted by the addition of Tf
- Papp at 2 h, 50 μM [9]: 0.0002 ± 8e-05 ×10⁻⁶ cm/s
- Detection by MALDI-TOF MS in acceptor wells [4]: detected
- Caco-2 T (%) [4]: 0.7 ± 0.3%
- Caco-2 transport [4]: 0.7 ± 0.3
- Papp at 2 h, 200 μM ([5]; Table 1, 2 h at 37 °C): 18 ± 2 ×10⁻⁶ cm/s
- Papp at 2 h, 200 μM ([5]; Table 2, 2 h at 37 °C): 9 ± 5 ×10⁻⁶ cm/s
- BBB T (%) ([6]; Table 1, 2 h at 37 °C): 16 ± 3%
- BBB T (%) ([6]; Table 2, 2 h at 37 °C): 10 ± 3%

Molecule: N=C(N)NCCC[C@H](NC(=O)[C@H](CCCNC(=N)N)NC(=O)[C@H](CCCNC(=N)N)NC(=O)[C@H](CCCNC(=N)N)NC(=O)[C@H](CCCNC(=N)N)NC(=O)[C@H](CCCNC(=N)N)NC(=O)[C@H](CCCNC(=N)N)NC(=O)[C@@H](N)CCCNC(=N)N)C(=O)O [Peptide R8]
- Internalization profile among candidates [2]: highest internalization profiles
- Internalization profile among candidates [3]: highest internalization profiles
- Detection by MALDI-TOF MS in acceptor wells [4]: detected
- Caco-2 T (%) [4]: 0%
- Papp ([5]; Table 1, 2 h at 37 °C): 0.6 ± 0.06 ×10⁻⁶ cm/s
- BBB T (%) ([6]; Table 1, 2 h at 37 °C): 0.68 ± 0.07%

Molecule: CC[C@H](C)[C@H](NC(=O)[C@H](CC(=O)O)NC(=O)[C@H](CS)NC(=O)[C@@H]1CCCN1C(=O)[C@@H](NC(=O)CNC(=O)[C@@H]1CCCN1C(=O)[C@H](CCCNC(=N)N)NC(=O)[C@@H]1CCCN1C(=O)[C@H](CC(N)=O)NC(=O)[C@H](CCC(=O)O)NC(=O)[C@@H]1CCCN1C(=O)[C@H](CCSC)NC(=O)[C@H](Cc1c[nH]c2ccccc12)NC(=O)[C@@H](NC(=O)[C@@H](NC(=O)[C@@H](N)Cc1ccc(O)cc1)[C@@H](C)O)[C@@H](C)CC)[C@@H](C)O)C(=O)N[C@@H](Cc1ccccc1)C(=O)N[C@H](C(=O)N[C@@H](CC(N)=O)C(=O)N[C@@H](CO)C(=O)N[C@@H](CCCNC(=N)N)C(=O)NCC(=O)N[C@@H](CCCCN)C(=O)N[C@@H](CCCNC(=N)N)C(=O)N[C@@H](C)C(=O)N[C@@H](CO)C(=O)N[C@@H](CC(N)=O)C(=O)NCC(=O)O)[C@@H](C)O [RVG]
- Caco-2 Papp [10]: 0 ×10⁻⁶ cm/s
- Caco-2 T (%) [10]: 0%
- BBB T (%) [11]: 0.29 ± 0.03%
- Papp [12]: 0.28 ± 0.02 ×10⁻⁶ cm/s

Molecule: CC(C)C[C@H](NC(=O)[C@@H](N)C(C)C)C(=O)N[C@@H](CCCNC(=N)N)C(=O)N1CCC[C@H]1C(=O)N1CCC[C@H]1C(=O)N1CCC[C@H]1C(=O)N[C@H](C(=O)N[C@@H](CC(C)C)C(=O)N[C@@H](CCCNC(=N)N)C(=O)N1CCC[C@H]1C(=O)N1CCC[C@H]1C(=O)N1CCC[C@H]1C(=O)N[C@H](C(=O)N[C@@H](CC(C)C)C(=O)N[C@@H](CCCNC(=N)N)C(=O)N1CCC[C@H]1C(=O)N1CCC[C@H]1C(=O)N1CCC[C@H]1C(=O)O)C(C)C)C(C)C [SAP, H-(VLRPPP)3-OH] (H-VLRPPPVLRPPPVLRPPP-OH)
- Caco-2 T (%) [4]: 0%
- Papp at 2 h, 200 μM ([5]; Table 1, 2 h at 37 °C): 5.5 ± 1.5 ×10⁻⁶ cm/s
- BBB T (%) ([6]; Table 1, 2 h at 37 °C): 5 ± 3%

Molecule: CC[C@@H](C)[C@@H](NC(=O)[C@@H](Cc1ccc(O)cc1)NC(=O)[C@H]1CCCN1C(=O)[C@@H](CCCNC(=N)N)NC(=O)[C@H](N)Cc1c[nH]cn1)C(=O)N[C@H](C)C(=O)N[C@H](Cc1c[nH]cn1)C(N)=O [rD-HAI, H-hrpyiah-NH2]
- half-life [1]: > 24 h
- Internalization with respect to the parent version (HAI) [2]: maintained the internalization rate
- Internalization with respect to the parent version (HAI) [3]: maintained the internalization rate
- Transport at increasing concentrations [13]: saturation of transport
- Papp at 2 h, 50 μM [9]: 0.00012 ± 0.0001 ×10⁻⁶ cm/s
- Caco-2 transport [4]: 0.4 ± 0.3
- Papp at 2 h, 200 μM ([5]; Table 2, 2 h at 37 °C): 14 ± 2 ×10⁻⁶ cm/s
- BBB T (%) ([6]; Table 2, 2 h at 37 °C): 17 ± 3%
- BBB transport rate relative to the parent version ([6]; vs HAI): around 1.5 times

Molecule: Penetratin
- Internalization profile among candidates [2]: highest internalization profiles
- Internalization profile among candidates [3]: highest internalization profiles

Molecule: TAT: HIV TAT 48–57 peptide, derived from the transcriptional trans-activator protein of HIV-1; cell-penetrating peptide (GRKKRRQRRR; UniProt P04608 48-57, looked up, fragment)
- Internalization profile among candidates [2]: highest internalization profiles
- Internalization profile among candidates [3]: highest internalization profiles
- Caco-2 T (%) [4]: 0%
- BBB T (%) ([6]; Table 1, 2 h at 37 °C): 0%
- Detection by MALDI-TOF MS in acceptor wells ([6]; after 2 h): not detected
